Measured values taken from the supplement of paper PMC10307832.

How the values were obtained:
Test in all cases: relative viability (nuclei count vs DMSO), 5 days (fraction); higher = more cells survive
Palbociclib = compound: CC(=O)c1c(C)c2cnc(Nc3ccc(N4CCNCC4)cn3)nc2n(C2CCCC2)c1=O [Palbociclib]
Procedure, shortened: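 Cells of lung cancer lines were placed in 1536-well plates and kept overnight at 37 °C. Pinning then delivered five library-drug doses (not always all listed), spaced by √10, onto plates anchored with vehicle, and the cells were left 5 days without changing medium. One step fixed, permeabilised and stained them with Hoechst, and MetaXpress counted nuclei in 4× images. Viability, as a median over plates, is treated-well nuclei divided by vehicle-well nuclei, with acceptance only at control CV below 25% and at least one doubling.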

Palbociclib + Dasatinib = compound: CC(=O)c1c(C)c2cnc(Nc3ccc(N4CCNCC4)cn3)nc2n(C2CCCC2)c1=O [Palbociclib] + Cc1nc(Nc2ncc(C(=O)Nc3c(C)cccc3Cl)s2)cc(N2CCN(CCO)CC2)n1 [Dasatinib] (partner 0.075 µM)
Procedure, shortened: (§1)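 Relative viability divides the nuclei count in treated wells by that in vehicle wells. Lung cancer cell lines were seeded in 1536-well plates, dosed by pin tool the next day, and fixed and stained after 5 days in one step with final 0.05% Triton X-100, 1% formaldehyde and 1 ug/ml Hoechst. Dosing was a single drug or a fixed anchor-drug dose plus five library-drug doses (not always all listed) in √10 steps, and values are medians of duplicate plates imaged at 4×.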

Palbociclib + Decitabine = compound: CC(=O)c1c(C)c2cnc(Nc3ccc(N4CCNCC4)cn3)nc2n(C2CCCC2)c1=O [Palbociclib] + Nc1ncn([C@H]2C[C@H](O)[C@@H](CO)O2)c(=O)n1 [Decitabine] (partner 2 µM)
Procedure, shortened: as §1

Cell Line | relative viability (Palbociclib; 0.01 µM) | relative viability (Palbociclib; 0.03162 µM) | relative viability (Palbociclib; 0.1 µM) | relative viability (Palbociclib; 0.3162 µM) | relative viability (Palbociclib; 0.5 µM, anchor plate) | relative viability (Palbociclib; 1 µM) | relative viability (Palbociclib + Dasatinib; first compound 0.01 µM) | relative viability (Palbociclib + Dasatinib; first compound 0.03162 µM) | relative viability (Palbociclib + Dasatinib; first compound 0.1 µM) | relative viability (Palbociclib + Dasatinib; first compound 0.3162 µM) | relative viability (Palbociclib + Dasatinib; first compound 1 µM) | relative viability (Palbociclib + Decitabine; first compound 0.01 µM) | relative viability (Palbociclib + Decitabine; first compound 0.03162 µM) | relative viability (Palbociclib + Decitabine; first compound 0.1 µM) | relative viability (Palbociclib + Decitabine; first compound 0.3162 µM) | relative viability (Palbociclib + Decitabine; first compound 1 µM)
LCLC-103H | 1 | 0.762 | 0.858 | 0.833 | 0.469 | 0.537 | 0.44 | 0.331 | 0.452 | 0.367 | 0.307 | 0.675 | 0.76 | 0.674 | 0.679 | 0.627
LK-2 | 1 | 0.736 | 0.8 | 0.965 | 0.727 | 0.803 | 0.356 | – | 0.305 | 0.301 | 0.321 | 0.299 | 0.213 | 0.333 | 0.324 | 0.283
LOU-NH91 | 1.09 | 0.661 | 0.723 | 0.702 | 0.529 | 0.608 | 0.66 | 0.425 | 0.429 | 0.434 | 0.41 | 0.817 | 0.732 | 0.693 | 0.631 | 0.61
LU99A | 0.91 | 0.711 | 0.924 | 0.928 | 0.414 | 0.65 | 0.506 | 0.428 | 0.353 | 0.344 | 0.379 | 0.926 | – | 0.863 | 0.813 | 0.684
LXF-289 | 1.01 | 0.878 | 0.928 | 0.899 | 0.593 | 0.796 | 0.208 | 0.0993 | 0.164 | 0.148 | 0.174 | 0.367 | 0.405 | 0.411 | 0.363 | 0.422
NCI-H23 | 0.973 | 0.417 | 0.765 | 0.877 | 0.538 | 0.593 | 0.835 | – | 0.8 | 0.732 | 0.541 | 0.28 | 0.341 | 0.283 | 0.362 | 0.33
NCI-H322M | 0.888 | 0.825 | 0.633 | 0.648 | 0.492 | 0.502 | 0.278 | 0.216 | 0.207 | 0.209 | 0.198 | 0.691 | 0.654 | 0.674 | 0.654 | 0.521
NCI-H358 | 0.986 | 0.675 | 0.718 | 0.543 | 0.138 | 0.277 | 0.156 | 0.179 | 0.101 | 0.0972 | 0.0795 | 0.209 | 0.203 | 0.206 | 0.186 | 0.143
NCI-H441 | 0.829 | 0.655 | 0.741 | 0.741 | 0.235 | 0.5 | 0.518 | 0.525 | 0.522 | 0.362 | 0.221 | 0.22 | 0.244 | 0.241 | 0.241 | 0.236
NCI-H460 | 0.974 | 0.81 | 0.912 | 0.864 | 0.199 | 0.532 | 0.459 | 0.429 | 0.392 | 0.314 | 0.162 | 0.432 | 0.415 | 0.503 | 0.46 | 0.264
